“And” between values parts separate entries of the source, which are not always exact repeats. Equal values may be shown once.
Key:
Format in all cases: cell-based
Cordana musae = assay: In vitro-test with fungal microorganisms: Cordana musae
Method: (§1) The degree of efficacy, expressed in % is denoted. 0% means an efficacy which corresponds to that of the control while an efficacy of 100% means that no disease is observed.
(§2) Wells of 96-well microtiter plates are filled with 30 μl of a preparation of test compound or compound combination in methanol+emulsifier alkylaryl-polyglycol-ether. Thereafter, the solvent is evaporated in a hood. At the next step, into each well 200 μl of liquid growth medium is given, that has been amended with an appropriate concentration of spores or mycelium suspension of the test fungus.
(§3) With the aid of a photometer the extinction in all wells is measured at the wavelength of 600 nm.
(§4) The microtiter plates are incubated for 3 to 7 days at 20° C. and 85% relative humidity. After the incubation inhibition of growth is determined photometrically. Efficacy is calculated in relation to the untreated control, 0% efficacy means fungal growth as high as in untreated control while 100% efficacy means no fungal growth is measured.

Colletotrichum coccodes = assay: In vitro-test with fungal microorganisms: Colletotrichum coccodes
Method: as §1, §2, §3, §4

Parastasonospora nodorum = assay: In vitro-test with fungal microorganisms: Parastasonospora nodorum
Method: as §1, §2, §3, §4

Diaporthe citri = assay: In vitro-test with fungal microorganisms: Diaporthe citri
Method: as §1, §2, §3, §4

Alternaria alternata = assay: In vitro-test with fungal microorganisms (microtiter plate, photometric growth inhibition): Alternaria alternata
Method: as §1, §2, §3, §4

Botrytis cinerea = assay: In vitro-test with fungal microorganisms: Botrytis cinerea
Method: as §1, §2, §3, §4

Cercospora beticola = assay: In vitro-test with fungal microorganisms: Cercospora beticola
Method: as §1, §2, §3, §4

Fusarium culmorum = assay: In vitro-test with fungal microorganisms: Fusarium culmorum
Method: as §1, §2, §3, §4

O=C(NC1CCC1c1ccc(Cl)cc1Cl)c1cccnc1C(F)(F)F (stereo in doubt) [(2.060) cyclobutrifluram, cyclobutrifluram] was tested, and the efficacy (Cordana musae; 0.04 ppm) was 3%, the efficacy (Cordana musae; 0.2 ppm) was 4% and the efficacy (Cordana musae; 1 ppm) was 6%. It also gave an efficacy (Colletotrichum coccodes; 0.04 ppm) of 5% and an efficacy (Colletotrichum coccodes; 0.2 ppm) of 8%.
For O=C(NC1CCC1c1ccc(Cl)cc1Cl)c1cccnc1C(F)(F)F (stereo in doubt) [cyclobutrifluram], the efficacy (Parastasonospora nodorum; Table H2, 0.04 ppm) was 27% and the efficacy (Diaporthe citri; Table F1, 0.04 ppm) was 0%.
For O=C(NCCc1ncc(C(F)(F)F)cc1Cl)c1ccccc1C(F)(F)F [(2.005) fluopyram, fluopyram], the efficacy (Cordana musae; 0.16 ppm) was 0%, the efficacy (Cordana musae; 0.8 ppm) was 6% and 0% and the efficacy (Alternaria alternata; 0.16 ppm) was 72%. It also gave an efficacy (Alternaria alternata; 0.8 ppm) of 73%, an efficacy (Alternaria alternata; 4 ppm) of 95% and an efficacy (Botrytis cinerea; 0.8 ppm) of 0%. For the same compound, the efficacy (Colletotrichum coccodes; 0.16 ppm) was 10% and 0% and the efficacy (Colletotrichum coccodes; 0.8 ppm) was 0%.
Work on Cc1nn(C)c(F)c1C(=O)Nc1ccccc1C(C)CC(C)C (stereo not shown) [(2.017) penflufen, penflufen] yielded an efficacy (Alternaria alternata; 0.2 ppm) of 14%, an efficacy (Botrytis cinerea; 1 ppm) of 35% and an efficacy (Botrytis cinerea; 5 ppm) of 7%. It also gave an efficacy (Colletotrichum coccodes; 0.04 ppm) of 5% and an efficacy (Colletotrichum coccodes; 0.2 ppm) of 0%.
Compound CON(C(=O)c1cn(C)nc1C(F)F)C(C)Cc1c(Cl)cc(Cl)cc1Cl (stereo not shown) [(2.019) pydiflumetofen, pydiflumetofen] has an efficacy (Botrytis cinerea; 0.04 ppm) of 71%, an efficacy (Botrytis cinerea; 0.2 ppm) of 82% and an efficacy (Botrytis cinerea; 1 ppm) of 92%. For the same compound, the efficacy (Colletotrichum coccodes; 0.008 ppm) was 8% and 9% and the efficacy (Colletotrichum coccodes; 0.2 ppm) was 19%.
CC(C)c1ccc(Cl)cc1CN(C(=O)c1c(C(F)F)nn(C)c1F)C1CC1 [(2.038) isoflucypram, isoflucypram] was tested, and the efficacy (Cercospora beticola; 0.008 ppm) was 20%, the efficacy (Cercospora beticola; 0.04 ppm) was 30% and the efficacy (Cercospora beticola; 0.2 ppm) was 0%. The efficacy (Cercospora beticola; 1 ppm) was 88%, the efficacy (Cordana musae; 0.008 ppm) was 8% and 2% and the efficacy (Cordana musae; 0.04 ppm) was 0%. It also gave an efficacy (Alternaria alternata; 0.008 ppm) of 51%, an efficacy (Alternaria alternata; 0.2 ppm) of 69% and an efficacy (Colletotrichum coccodes; 0.008 ppm) of 23%. For the same compound, the efficacy (Colletotrichum coccodes; 0.04 ppm) was 9% and 5% and the efficacy (Colletotrichum coccodes; 0.2 ppm) was 14%.
Work on CO/N=C(/C1=NOCCO1)c1ccccc1Oc1ncnc(Oc2ccccc2Cl)c1F [(3.012) fluoxastrobin, fluoxastrobin] yielded an efficacy (Cercospora beticola; 2 ppm) of 94%, an efficacy (Cordana musae; 2 ppm) of 77% and an efficacy (Cordana musae; 10 ppm) of 87%. The efficacy (Alternaria alternata; 2 ppm) was 100%, the efficacy (Botrytis cinerea; 0.08 ppm) was 15% and 12% and the efficacy (Botrytis cinerea; 2 ppm) was 59% and 52%. The efficacy (Botrytis cinerea; 10 ppm) was 86% and 83%, the efficacy (Colletotrichum coccodes; 0.008 ppm) was 0% and the efficacy (Colletotrichum coccodes; 0.08 ppm) was 30% and 15%. The efficacy (Colletotrichum coccodes; 0.4 ppm) was 49% and 50% and 51%, the efficacy (Colletotrichum coccodes; 2 ppm) was 88% and 87% and 82% and 83% and the efficacy (Colletotrichum coccodes; 10 ppm) was 94% and 95% and 96%.
With CON=C(C(=O)OC)c1ccccc1CON=C(C)c1cccc(C(F)(F)F)c1 [(3.020) trifloxystrobin, trifloxystrobin] the efficacy (Cordana musae; 0.008 ppm) was 29%, the efficacy (Cordana musae; 0.04 ppm) was 82% and the efficacy (Cordana musae; 0.2 ppm) was 83% and 82%. For the same compound, the efficacy (Cordana musae; 1 ppm) was 89% and 88% and 86% and 85%, the efficacy (Alternaria alternata; 0.008 ppm) was 39% and the efficacy (Alternaria alternata; 1 ppm) was 100%. It also gave an efficacy (Botrytis cinerea; 0.008 ppm) of 0%, an efficacy (Botrytis cinerea; 0.04 ppm) of 9% and an efficacy (Botrytis cinerea; 0.2 ppm) of 25%. The efficacy (Botrytis cinerea; 1 ppm) was 81%, the efficacy (Colletotrichum coccodes; 0.04 ppm) was 58% and 62% and 61% and the efficacy (Colletotrichum coccodes; 0.2 ppm) was 84% and 88% and 82%. For the same compound, the efficacy (Colletotrichum coccodes; 1 ppm) was 96% and 97% and 92%.
Cc1cccc(-n2nnn(C)c2=O)c1COc1ccn(-c2ccc(Cl)cc2)n1 [(3.030) metyltetraprole, metyltetraprole] gave an efficacy (Cordana musae; 0.08 ppm) of 65%, an efficacy (Cordana musae; 0.4 ppm) of 77% and an efficacy (Cordana musae; 10 ppm) of 96%. The efficacy (Alternaria alternata; 2 ppm) was 92% and 99%, the efficacy (Alternaria alternata; 10 ppm) was 99% and the efficacy (Botrytis cinerea; 0.08 ppm) was 18%. For the same compound, the efficacy (Botrytis cinerea; 0.4 ppm) was 30% and 25%, the efficacy (Botrytis cinerea; 10 ppm) was 84% and the efficacy (Colletotrichum coccodes; 0.008 ppm) was 36%. For the same compound, the efficacy (Colletotrichum coccodes; 0.4 ppm) was 75% and 73% and 72%, the efficacy (Colletotrichum coccodes; 2 ppm) was 92% and 94% and 82% and the efficacy (Colletotrichum coccodes; 10 ppm) was 100%.
COC(=O)C(O)(Cn1cncn1)c1ccc(Oc2ccc(Cl)cc2)cc1Cl (stereo not shown) [(I-1), Methyl 2-[2-chloro-4-(4-chlorophenoxy)phenyl]-2-hydroxy-3-(1,2,4-triazol-1-yl)propanoate] was tested, and the efficacy (Fusarium culmorum; 0.02 ppm) was 9%, the efficacy (Fusarium culmorum; 0.1 ppm) was 6% and 0% and the efficacy (Fusarium culmorum; 0.5 ppm) was 0%. The efficacy (Cercospora beticola; 0.02 ppm) was 50%, the efficacy (Cercospora beticola; 0.1 ppm) was 36% and the efficacy (Cercospora beticola; 0.5 ppm) was 74%. The efficacy (Cercospora beticola; 2.5 ppm) was 99%, the efficacy (Parastasonospora nodorum; Table H1, 0.02 ppm) was 0% and the efficacy (Parastasonospora nodorum; Table H1, 2.5 ppm) was 99%. The efficacy (Parastasonospora nodorum; Table H2, 0.02 ppm) was 2% and 0% and 3%, the efficacy (Parastasonospora nodorum; Table H2, 2.5 ppm) was 96% and the efficacy (Parastasonospora nodorum; Table H3, 0.02 ppm) was 9%. The efficacy (Diaporthe citri; Table F1, 2.5 ppm) was 99%, the efficacy (Diaporthe citri; Table F2, 0.02 ppm) was 2% and the efficacy (Diaporthe citri; Table F2, 0.5 ppm) was 92%. The efficacy (Diaporthe citri; Table F2, 2.5 ppm) was 98%, the efficacy (Alternaria alternata; 2.5 ppm) was 92% and the efficacy (Botrytis cinerea; 2.5 ppm) was 62%. For the same compound, the efficacy (Botrytis cinerea; 2.5 ppm, with penflufen 1 ppm, metyltetraprole 0.08 ppm) was 63% and the efficacy (Colletotrichum coccodes; 0.02 ppm) was 0% and 4%.
In the case of O=C(NCCc1ncc(C(F)(F)F)cc1Cl)c1ccccc1C(F)(F)F [fluopyram], the efficacy (Fusarium culmorum; 0.16 ppm) is reported as 9%, the efficacy (Fusarium culmorum; 0.8 ppm) is reported as 18% and the efficacy (Parastasonospora nodorum; Table H1, 0.16 ppm) is reported as 14%. For the same compound, the efficacy (Parastasonospora nodorum; Table H1, 20 ppm) was 100% and the efficacy (Diaporthe citri; Table F1, 0.16 ppm) was 0%.
With CO/N=C(/C1=NOCCO1)c1ccccc1Oc1ncnc(Oc2ccccc2Cl)c1F [fluoxastrobin] the efficacy (Fusarium culmorum; 0.08 ppm) was 7% and 0%, the efficacy (Fusarium culmorum; 0.4 ppm) was 17% and the efficacy (Fusarium culmorum; 10 ppm) was 56%. The efficacy (Parastasonospora nodorum; Table H1, 0.4 ppm) was 77%, the efficacy (Parastasonospora nodorum; Table H1, 2 ppm) was 87% and the efficacy (Parastasonospora nodorum; Table H2, 0.08 ppm) was 60%. It also gave an efficacy (Parastasonospora nodorum; Table H2, 0.4 ppm) of 65%, an efficacy (Parastasonospora nodorum; Table H2, 2 ppm) of 85% and an efficacy (Parastasonospora nodorum; Table H3, 0.08 ppm) of 57%. It also gave an efficacy (Parastasonospora nodorum; Table H3, 2 ppm) of 85%, an efficacy (Parastasonospora nodorum; Table H3, 10 ppm) of 82% and an efficacy (Cordana musae; 0.4 ppm) of 64%. The efficacy (Cordana musae; 2 ppm) was 78%, the efficacy (Cordana musae; 10 ppm) was 78% and the efficacy (Diaporthe citri; Table F1, 0.4 ppm) was 89%. For the same compound, the efficacy (Diaporthe citri; Table F1, 2 ppm) was 98% and the efficacy (Diaporthe citri; Table F2, 2 ppm) was 66%.
For C[C@@H]1CC(C)(C)c2cccc(NC(=O)c3cn(C)nc3C(F)F)c21 [inpyrfluxam], the efficacy (Parastasonospora nodorum; Table H3, 0.008 ppm) was 20%, the efficacy (Cordana musae; 0.008 ppm) was 16% and the efficacy (Cordana musae; 0.04 ppm) was 0%. It also gave an efficacy (Cordana musae; 0.2 ppm) of 6%.
CC(C)c1ccc(Cl)cc1CN(C(=O)c1c(C(F)F)nn(C)c1F)C1CC1 [isoflucypram] gave an efficacy (Fusarium culmorum; 0.04 ppm) of 0% and an efficacy (Fusarium culmorum; 0.2 ppm) of 11%.
For Cc1cccc(-n2nnn(C)c2=O)c1COc1ccn(-c2ccc(Cl)cc2)n1 [metyltetraprole], the efficacy (Parastasonospora nodorum; Table H2, 0.08 ppm) was 80% and 76%, the efficacy (Parastasonospora nodorum; Table H2, 0.4 ppm) was 92% and the efficacy (Parastasonospora nodorum; Table H2, 2 ppm) was 100%. The efficacy (Parastasonospora nodorum; Table H2, 10 ppm) was 100%, the efficacy (Cordana musae; 0.08 ppm) was 58% and the efficacy (Cordana musae; 0.4 ppm) was 73%. It also gave an efficacy (Cordana musae; 2 ppm) of 82%, an efficacy (Diaporthe citri; Table F1, 0.4 ppm) of 91% and an efficacy (Diaporthe citri; Table F1, 2 ppm) of 99%. It also gave an efficacy (Diaporthe citri; Table F1, 10 ppm) of 99%, an efficacy (Diaporthe citri; Table F2, 0.4 ppm) of 89% and an efficacy (Diaporthe citri; Table F2, 2 ppm) of 99%.
In the case of Cc1nn(C)c(F)c1C(=O)Nc1ccccc1C(C)CC(C)C (stereo not shown) [penflufen], the efficacy (Parastasonospora nodorum; Table H2, 5 ppm) is reported as 22%, the efficacy (Cordana musae; 0.2 ppm) is reported as 0% and the efficacy (Cordana musae; 1 ppm) is reported as 0%. The efficacy (Diaporthe citri; Table F2, 0.04 ppm) was 0% and the efficacy (Diaporthe citri; Table F2, 0.2 ppm) was 0%.
CON(C(=O)c1cn(C)nc1C(F)F)C(C)Cc1c(Cl)cc(Cl)cc1Cl (stereo not shown) [pydiflumetofen] was tested, and the efficacy (Cordana musae; 0.008 ppm) was 0%, the efficacy (Cordana musae; 0.04 ppm) was 9% and the efficacy (Diaporthe citri; Table F2, 0.04 ppm) was 0%. The efficacy (Diaporthe citri; Table F2, 0.2 ppm) was 22% and the efficacy (Diaporthe citri; Table F2, 1 ppm) was 33%.
For CON=C(C(=O)OC)c1ccccc1CON=C(C)c1cccc(C(F)(F)F)c1 [trifloxystrobin], the efficacy (Fusarium culmorum; 0.008 ppm) was 14%, the efficacy (Fusarium culmorum; 0.04 ppm) was 18% and the efficacy (Fusarium culmorum; 0.2 ppm) was 41%. The efficacy (Fusarium culmorum; 1 ppm) was 68%, the efficacy (Parastasonospora nodorum; Table H1, 0.04 ppm) was 65% and the efficacy (Parastasonospora nodorum; Table H1, 0.2 ppm) was 85%. The efficacy (Parastasonospora nodorum; Table H2, 0.008 ppm) was 44%, the efficacy (Parastasonospora nodorum; Table H2, 0.04 ppm) was 79% and the efficacy (Cordana musae; 0.2 ppm) was 73%. The efficacy (Cordana musae; 1 ppm) was 84%.
inpyrfluxam [(2.027) inpyrfluxam] gave an efficacy (Cordana musae; 0.008 ppm) of 16%, an efficacy (Cordana musae; 0.04 ppm) of 0% and an efficacy (Cordana musae; 0.2 ppm) of 6%. For the same compound, the efficacy (Alternaria alternata; 0.008 ppm) was 0%, the efficacy (Alternaria alternata; 0.04 ppm) was 41% and 27% and the efficacy (Alternaria alternata; 1 ppm) was 86%. It also gave an efficacy (Botrytis cinerea; 0.008 ppm) of 0%, an efficacy (Botrytis cinerea; 0.04 ppm) of 37% and an efficacy (Botrytis cinerea; 0.08 ppm) of 0%. It also gave an efficacy (Colletotrichum coccodes; 0.008 ppm) of 0%, an efficacy (Colletotrichum coccodes; 0.08 ppm) of 24% and an efficacy (Colletotrichum coccodes; 0.2 ppm) of 0%. For the same compound, the efficacy (Colletotrichum coccodes; 0.4 ppm) was 23%.
